Test results: patent publication US6242445A, “Benzimidazole derivative” (Kureha Chemical Industry Co., Ltd., priority 1998, dated 2001)

Columns and labels:
[1] = target: T1, angiotensin II receptor subtype 1 (AT1) (Oryctolagus cuniculus, UniProt P34976); experiment: Binding assay, angiotensin II receptor subtype 1 (AT1); set-up: species or system rabbits
T1 construct: from adrenal glands in rabbits; from tissue; host or cells: adrenal glands of rabbits
T1 sequence (P34976 1-359): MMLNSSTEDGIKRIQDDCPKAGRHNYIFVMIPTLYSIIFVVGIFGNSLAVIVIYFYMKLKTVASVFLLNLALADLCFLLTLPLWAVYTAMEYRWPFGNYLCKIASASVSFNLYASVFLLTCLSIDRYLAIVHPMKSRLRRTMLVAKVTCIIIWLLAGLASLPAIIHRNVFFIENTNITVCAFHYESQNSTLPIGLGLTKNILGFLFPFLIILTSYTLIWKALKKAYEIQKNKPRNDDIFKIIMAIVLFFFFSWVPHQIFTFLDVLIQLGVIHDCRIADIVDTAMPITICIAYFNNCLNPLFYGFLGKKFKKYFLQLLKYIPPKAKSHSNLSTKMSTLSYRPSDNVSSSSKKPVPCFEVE
Method: In this Example, a binding assay was carried out. That is, the affinity to the angiotensin II receptor subtype 1 orsubtype 2 was evaluated in accordance with the method described in Biochem. Pharmacol., 33, 4057-4062 (1984).
Specifically, the measurement of the total binding in the presence of each drug was performed as follows:
A mixture (final volume=0.25 ml) of a drug in a given concentration (the drug was dissolved in DMSO, and diluted to a double volume with a buffer attached to a drug discovery system to prepare a sample for the assay; 0.025 ml), a tracer (0.025 ml), and receptors (0.2 ml) was incubated [in the case of the angiotensin II receptor subtype 1 (AT1), at room temperature for 3 hours, and in the case of the subtype 2 (AT2), at 37° C. for 1 hour]. Then, the reaction mixture was filtered with suction (a GF/C filter was used in AT1, and a GF/B filter was used in AT2). The filter papers after filtration with suction (the tracer bound to the receptors) were counted by a γ-well counter (ARC-500, Aloka). The non-specific bindings were measured by repeating the above method, except that a large excess amount of a displacer was added. The specific binding of the drug in the given concentration was calculated by subtracting the non-specific binding from the total binding, respectively.
tracer: ^3 H-angiotensin II

ICR female mice = experiment: Acute toxicity (single oral administration); format: in vivo
Method: Acute toxicity was evaluated in this Example. As a compound to be examined, 2-ethoxy-1-[[4'-(2"-N,N-dimethylamino-ethoxycarbonyl)phenyl]methyl]-1H-benzimidazole-6-carboxylic acid morpholide (Compound No. 13) prepared in Example 6 was used.
Five-week-old ICR female mice (5 mice per group) were bredfor acclimation for a week. Then, Compound No. 13 was dissolved or suspended in 0.5% methylcellulose aqueous solution, and orally administered to the mice in a single dosage (500 mg/kg). […] Further, as to Compound No. 55, Compound No. 57, Compound No. 59, and Compound No. 65 prepared in Examples 26, 28, 31, and 23, respectively, acute toxicity was also evaluated.

SHR rats = experiment: Action on weight of heart in SHR rats; format: in vivo; conditions: 20 weeks; for Relative weight ratio / Heart weight / Blood pressure / Body weight: 20 mg/kg oral in drinking solution, average±standard deviation; for Relative weight ratio: control 0.338 ± 0.012; for Heart weight: control 1.430 ± 0.082; for Blood pressure: control 224 ± 49; for Body weight: control 423 ± 17; for heart weight based on hypercardia / lowering of blood pressure / myocardiopathy: 20 mg/kg
Method: In this Example, an action on a weight of a heart was evaluated. More particularly, 21-week-old SHR rats were divided into a control group (8 rats) and a test group (7 rats). The rats in the test group were allowed to freely drink a solution prepared by dissolving 2-ethoxy-1-[[4'-(2"-N,N-dimethylamino-ethoxycarbonyl)phenyl]methyl]-1H-benzimidazole-6-carboxylic acid morpholide (Compound No. 13) prepared in Example 6 or 2-ethoxy-1-[[4'-(2'-morpholinoethoxycarbonyl)-phenyl]methyl]-1H-benzimidazole-6-carboxylic acid piperidinamide (Compound No. 57) prepared in Example 28 for 20 weeks (20 mg/kg). After the oral administration was finished, the heart was taken, and the weight of the heart was measured.

[2] = tested on: kidney disease model rats; experiment: Survival time of kidney diseased animals; format: in vivo, Sprague-Dawley female rats; conditions: for survival time / Average survival time: 20 mg/kg/day; for Average survival time: observation period eight weeks (upper limit), control 5.0; for effect on survival compared with reference substance: vs DuP753
Method: In this Example, an action to lower blood pressure was evaluated. That is, each of 2-ethoxy-1-[[4'- (2'-N,N-dimethylamino-ethoxycarbonyl) phenyl]methyl]-1H-benzimidazole-6-carboxylic acid morpholide (Compound No. 13) prepared in Example 6, 2-ethoxy-1-[[4'-(2"-morpholinoethoxycarbonyl)-phenyl]methyl]-1H-benzimidazole-6-carboxylic acid piperidinamide (Compound No. 57) prepared in Example 28, or the reference substance was forcibly orally administered to kidney disease model rats, and the action of lowering the blood pressure was observed. The kidney disease model rats were prepared by a ligature of branches of renal artery in accordance with a conventional method. Namely, the left hilum renalis of Sprague-Dawley female rats was exposed under anesthesia, and one of four secondary branches of the renal artery was left unligated, while the remaining three branches were ligated, respectively. After a week, the hilum renalis (artery, vein, and ureter) of the right kidney were further ligated to thereby prepare rats whose renal function was lowered to approximately 1/8 of the normal function. Each group consisted of eight rats. The drugs to be tested (20 mg/kg) were administered to each administering group, and only water was administered to a control group. Two days after the administration, the systolic blood pressure was measured by the tail cuff method using a blood pressure measuring apparatus (UR^5000; Ueda).
In this Example, an action to survival time of kidney diseased animals was evaluated. As compounds to be examined, 2-ethoxy-1-[[4'-(2"-N,N-dimethylamino-ethoxycarbonyl)-phenyl]methyl]-1H-benzimidazole-6-carboxylic acid morpholide (Compound No. 13) prepared in Example 6, and 2-ethoxy-1-[[4'-(2"-morpholinoethoxycarbonyl)phenyl]methyl]-1H-benzimidazole-6-carboxylic acid piperidinamide (Compound No. 57) prepared in Example 28 were used.
The kidney disease model rats were prepared as in Example 38. Fifteen groups (8 rats per group) were prepared in a manner such that there was no major difference between the groups in the serum creatinine value and the blood urea nitrogen value indicating renal function. The rats in each group were allowed to freely take up food and water. […] To the rats in the control group, only water was forcibly orally administered every day. If kidney diseases are aggravated, the rat will die of uremia. Thus, the survival time was observed as a comprehensive indication of the improvement of the effect on the kidney diseases. The observation period was eight weeks. Thus if all rats survived, the average survival time is eight weeks, and is an upper limit.

SMILES	inhibitory effect / binding activity / antagonism at angiotensin II receptor [1]	Number of deaths/number of survivals (ICR female mice; 500 mg/kg single oral, deaths observed for 6 days)	Relative weight ratio (SHR rats) [%]	Heart weight (SHR rats) [g]	Blood pressure (SHR rats) [mmHg]	Body weight (SHR rats) [g]	heart weight based on hypercardia (SHR rats)	lowering of blood pressure (SHR rats)	myocardiopathy (SHR rats)	survival time [2]	Average survival time [2] [weeks]	effect on survival compared with reference substance [2]	Number of deaths/number of survivals (ICR female mice; mouse, in vivo)
CCOc1nc2ccc(C(=O)N3CCOCC3)cc2n1Cc1ccc(C(=O)OCCN(C)C)cc1 [Compound No. 13, 2-ethoxy-1-[[4'-(2"-N,N-dimethylaminoethoxycarbonyl)phenyl]methyl]-1H-benzimidazole-6-carboxylic acid morpholide]	do not substantially exhibit a conventional angiotensin II receptor antagonism	0/5	0.328 ± 0.007	1.392 ± 0.034	232 ± 12	424	significantly reduced	without inducing a lowering of blood pressure	suppresses myocardiopathy	clearly prolonged the survival time	7.5	comparable or superior to that of the reference substance	–
CCOc1nc2ccc(C(=O)N3CCCCC3)cc2n1Cc1ccc(C(=O)OCCN2CCOCC2)cc1 [Compound No. 57, 2-ethoxy-1-[[4'-(2"-morpholinoethoxycarbonyl)phenyl]methyl]-1H-benzimidazole-6-carboxylic acid piperidinamide]	do not substantially exhibit a conventional angiotensin II receptor antagonism	–	0.324 ± 0.012	1.390 ± 0.077	207 ± 14	429	significantly reduced	without inducing a lowering of blood pressure	suppresses myocardiopathy	clearly prolonged the survival time	7.5	comparable or superior to that of the reference substance	0/5
